Test results published in patent publication US20230348424A1, “HETEROCYCLIC COMPOUNDS AND METHODS OF USE” (Schrödinger, Inc., priority 2022, published 2023).

target: SOS1:KRAS (G12C) interaction (Homo sapiens (Human), UniProt Q07889); assay: SOS1 KRas(G12C) FRET Assay; type: binding; conditions: 0.5 nM His10-SOS1 (res. 564-1049), 2.5 nM GST-KRAS G12C (res. 1-169), 2 hrs at RT
How it was run: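 GST-KRAS G12C (res. 1-169) at 2.5 nM and His10-SOS1 (res. 564-1049) at 0.5 nM, final, in PBS with 0.1% BSA, 5 mM MgCl2, 100 mM KF, 5 mM DTT and 0.5% DMSO. After 2 h at RT, FRET read at 665/615 nm and normalized to DMSO and no-SOS1 controls. IC50 by non-linear regression.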

Chain of SOS1:KRAS (G12C) interaction (Q07889 564-1049, stated change not applied): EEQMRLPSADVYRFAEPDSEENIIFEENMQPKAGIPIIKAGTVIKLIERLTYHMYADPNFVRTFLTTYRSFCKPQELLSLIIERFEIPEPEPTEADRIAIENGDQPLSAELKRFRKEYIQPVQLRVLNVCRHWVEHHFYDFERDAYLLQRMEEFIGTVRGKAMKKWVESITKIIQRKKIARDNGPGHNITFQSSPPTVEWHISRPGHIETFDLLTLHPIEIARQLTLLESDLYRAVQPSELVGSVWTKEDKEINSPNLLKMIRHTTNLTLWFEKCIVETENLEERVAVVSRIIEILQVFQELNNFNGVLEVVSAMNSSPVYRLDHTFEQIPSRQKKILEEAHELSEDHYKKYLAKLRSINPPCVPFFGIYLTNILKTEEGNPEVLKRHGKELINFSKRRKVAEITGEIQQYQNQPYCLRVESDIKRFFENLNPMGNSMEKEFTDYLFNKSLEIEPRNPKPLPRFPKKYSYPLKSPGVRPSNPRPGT

IC50 [nM]	Structure (SMILES)
27.4	Cc1c([C@@H](C)NC(=O)c2cn(C3CCOCC3)c(=O)cc2NC2CCN(C)CC2)cccc1C(F)(F)F [Example 1, (R)-N-(I-(2-methyl-3-(trifluoromethyl)phenyl)ethyl)-4-((I-methylpiperidin-4-yl)amino)-6-oxo-1-(tetrahydro-2H-pyran-4-yl)-1,6-dihydropyridine-3-carboxamide]
27.6	C[C@@H](NC(=O)c1cn(C2(C)CC(F)(F)C2)c(=O)cc1NC1CCN(C)CC1)c1cccc(C(F)F)c1F [Example 222, (R)-1-(3,3-difluoro-1-methylcyclobutyl)-N-(1-(3-(difluoromethyl)-2-fluorophenyl)ethyl)-4-((1-methylpiperidin-4-yl)amino)-6-oxo-1,6-dihydropyridine-3-carboxamide]
> 10000	CN1C[C@@H]2[C@H](C1)[C@H]2Nc1cc(=O)n(C2(C(F)F)CC2)cc1C(=O)N[C@H](c1cccc(C(F)F)c1F)C(F)(F)F (single isomer, unassigned) [Example 276]
58.2	Cc1c([C@@H](C)NC(=O)c2cn(C3CCOCC3)c(=O)cc2N[C@H]2[C@@H]3CC[C@H]2CN(C)C3)cccc1C(F)(F)F (single isomer, unassigned) [Example 32]
10.2	C[C@@H](NC(=O)c1cn(C2CC3(C2)CC(F)(F)C3)c(=O)cc1N[C@H]1[C@@H]2CN(C)C[C@@H]21)c1cccc(C(F)F)c1F [Example 231, N-((R)-1-(3-(difluoromethyl)-2-fluorophenyl)ethyl)-1-(6,6-difluorospiro[3.3]heptan-2-yl)-4-(((1R,5S,6s)-3-methyl-3-azabicyclo[3.1.0]hexan-6-yl)amino)-6-oxo-1,6-dihydropyridine-3-carboxamide]
19.3	Cc1c(C#N)cccc1[C@@H](C)NC(=O)c1cn([C@H]2[C@H](C)C2(F)F)c(=O)cc1N[C@H]1[C@@H]2CN(C)C[C@@H]21 (single isomer, unassigned) [Example 194]
35.6	C[C@@H](NC(=O)c1cn(C2(C(F)F)CC2)c(=O)cc1N[C@@H]1CCN(C)C2(CC2)C1)c1cccc(C(F)F)c1F (single isomer, unassigned) [Example 312]
140	CC(Nc1cc(=O)n(C2(C(F)F)CC2)cc1C(=O)N[C@H](C)c1cccc(C(F)F)c1F)C1(CO)CC1 (stereo partly drawn) [Example 191, N-((R)-1-(3-(difluoromethyl)-2-fluorophenyl)ethyl)-1-(1-(difluoromethyl)cyclopropyl)-4-((1-(1-(hydroxymethyl)cyclopropyl)ethyl)amino)-6-oxo-1,6-dihydropyridine-3-carboxamide]
9.2	C[C@@H](NC(=O)c1cn([C@]23COC[C@H]2C3)c(=O)cc1N[C@H]1[C@@H]2CN(C)C[C@@H]21)c1cccc(C(F)(F)F)c1F [Example 290, 1-((1S,5S)-3-oxabicyclo[3.1.0]hexan-1-yl)-N-((R)-1-(2-fluoro-3-(trifluoromethyl)phenyl)ethyl)-4-(((1R,5S,6s)-3-methyl-3-azabicyclo[3.1.0]hexan-6-yl)amino)-6-oxo-1,6-dihydropyridine-3-carboxamide]
13	C[C@H](NC(=O)c1cn(C2(C(F)F)CC2)c(=O)cc1N[C@H]1[C@@H]2CN(C)C[C@@H]21)c1cccc(C(F)(F)c2ccncc2)c1F [Example 175, N-((S)-1-(3-(difluoro(pyridin-4-yl)methyl)-2-fluorophenyl)ethyl)-1-(1-(difluoromethyl)cyclopropyl)-4-(((1R,5S,6s)-3-methyl-3-azabicyclo[3.1.0]hexan-6-yl)amino)-6-oxo-1,6-dihydropyridine-3-carboxamide]
76.3	C[C@@H](NC(=O)c1cn(C2CC(F)(F)C2)c(=O)cc1N[C@H]1[C@@H]2CC[C@H]1CN(C)C2)c1cccc(C(F)F)c1F (single isomer, unassigned) [Example 258]
21.8	Cc1c([C@@H](C)NC(=O)c2cn(C3CCOCC3)c(=O)cc2N[C@H]2C[C@@H](N(C)C)C2)cccc1C(F)(F)F [Example 27]
12.3	C[C@@H](NC(=O)c1cn(C2CCC2)c(=O)cc1N[C@H]1[C@@H]2CN(C)C[C@@H]21)c1cccc(C(F)F)c1F [Example 150, 1-cyclobutyl-N-((R)-1-(3-(difluoromethyl)-2-fluorophenyl)ethyl)-4-(((1R,5S,6s)-3-methyl-3-azabicyclo[3.1.0]hexan-6-yl)amino)-6-oxo-1,6-dihydropyridine-3-carboxamide]
79.8	Cc1c(C#N)cccc1[C@@H](C)NC(=O)c1cn(C23CC(C2)C3)c(=O)cc1N[C@H]1[C@@H]2CN(C)C[C@@H]21 [Example 181, 1-(bicyclo[1.1.1]pentan-1-yl)-N-((R)-1-(3-cyano-2-methylphenyl)ethyl)-4-(((1R,5S,6s)-3-methyl-3-azabicyclo[3.1.0]hexan-6-yl)amino)-6-oxo-1,6-dihydropyridine-3-carboxamide]
> 10000	C[C@@H](NC(=O)c1cn(C2(C(F)F)CC2)c(=O)cc1NC1CCN(C)CC1)c1ccc(F)c(C(F)(F)F)c1 (single isomer, unassigned) [Example 167]
3.61	C[C@@H](NC(=O)c1cn(C23CC(C2)C3)c(=O)cc1N[C@@H]1CCN(C)C[C@@H]1F)c1cccc(C(F)F)c1F (single isomer, unassigned) [Example 204]
3.41	C[C@@H](NC(=O)c1cn([C@H]2[C@H](C)C2(F)F)c(=O)cc1N[C@H]1[C@@H]2CN(C)C[C@@H]21)c1cccc(C(F)(F)F)c1F (single isomer, unassigned) [Example 198]
9.9	C[C@@H](NC(=O)c1cn([C@]23COC[C@H]2C3)c(=O)cc1N[C@H]1[C@@H]2CN(C)C[C@@H]21)c1cccc(C(F)F)c1F [Example 287, 1-((1S,5S)-3-oxabicyclo[3.1.0]hexan-1-yl)-N-((R)-1-(3-(difluoromethyl)-2-fluorophenyl)ethyl)-4-(((1R,5S,6s)-3-methyl-3-azabicyclo[3.1.0]hexan-6-yl)amino)-6-oxo-1,6-dihydropyridine-3-carboxamide]
43.7	Cc1c([C@@H](C)NC(=O)c2cn(C3CCOCC3)c(=O)cc2N[C@H]2CCN(C)C3(CC3)C2)cccc1C(F)(F)F (single isomer, unassigned) [Example 39]
> 10000	Cc1cc([C@H](C)NC(=O)c2cn(C3(C(F)F)CC3)c(=O)cc2NC2CCN(C)CC2)cc(C(F)(F)F)n1 (single isomer, unassigned) [Example 172]
68.2	C[C@@H](NC(=O)c1cn(C2CCC2)c(=O)cc1N[C@@H]1[C@@H]2CC[C@H]1CN(C)C2)c1cccc(C(F)F)c1F (single isomer, unassigned) [Example 215]
561	C[C@H](NC(=O)c1cn(C2(C(F)F)CC2)c(=O)cc1NC1CCN(C)CC1)c1ccc(F)c(C(F)(F)F)c1 (single isomer, unassigned) [Example 168]
16.5	C[C@@H](NC(=O)c1cn([C@H]2C[C@H](C3CC3)C2)c(=O)cc1N[C@H]1[C@@H]2CN(C)C[C@@H]21)c1cccc(C(F)F)c1F (single isomer, unassigned) [Example 249]
33.4	Cc1c([C@@H](C)NC(=O)c2cn(C3CCOCC3)c(=O)cc2N[C@@H]2CC[C@]23CCCN(C)C3)cccc1C(F)(F)F (single isomer, unassigned) [Example 297]
10.4	C[C@@H](NC(=O)c1cn(C2CC(F)(F)C2)c(=O)cc1N[C@@H]1[C@@H]2CC[C@H]1CN(C)C2)c1cccc(C(F)F)c1F (single isomer, unassigned) [Example 259]
19.4	C[C@@H](NC(=O)c1cn(C2(C(F)F)CC2)c(=O)cc1N[C@H]1C[C@@H]2C[C@H]1CN2C)c1cccc(C(F)F)c1F (single isomer, unassigned) [Example 237]
44.2	C[C@@H](NC(=O)c1cn(C2(C(F)F)CC2)c(=O)cc1N[C@H]1[C@@H]2CC[C@H]1CN(C)C2)c1cccc(C(F)F)c1F (single isomer, unassigned) [Example 245]
25.7	C[C@@H](NC(=O)c1cn(C2(C(F)F)CC2)c(=O)cc1N[C@H]1CCN2CCC[C@@H]2C1)c1cccc(C(F)F)c1F (single isomer, unassigned) [Example 304]
16.1	C[C@@H](NC(=O)c1cn(C2(C(F)F)CC2)c(=O)cc1N[C@@H]1[C@@H]2CC[C@H]1CN(C)C2)c1cccc(C(F)F)c1F (single isomer, unassigned) [Example 246]
847	Cc1c([C@@H](C)NC(=O)c2cn(C3CCOCC3)c(=O)cc2NC2CCN(CC(F)(F)F)CC2)cccc1C(F)(F)F [Example 15, (R)-N-(1-(2-methyl-3-(trifluoromethyl)phenyl)ethyl)-6-oxo-1-(tetrahydro-2H-pyran-4-yl)-4-((1-(2,2,2-trifluoroethyl)piperidin-4-yl)amino)-1,6-dihydropyridine-3-carboxamide]

Structure (SMILES)	IC50 [nM]
Cc1c([C@@H](C)NC(=O)c2cn(C3CCOCC3)c(=O)cc2N[C@H]2C[C@H]3CC[C@@H]2N3C)cccc1C(F)(F)F (single isomer, unassigned) [Example 38]	45.8
C[C@@H](NC(=O)c1cn(C23COC(C(F)F)(C2)C3)c(=O)cc1NC1[C@H]2CN(C)C[C@@H]12)c1cccc(C(F)F)c1F (stereo partly drawn) [Example 263, N-((R)-1-(3-(difluoromethyl)-2-fluorophenyl)ethyl)-1-(1-(difluoromethyl)-2-oxabicyclo[2.1.1]hexan-4-yl)-4-(((1R,5S,6s)-3-methyl-3-azabicyclo[3.1.0]hexan-6-yl)amino)-6-oxo-1,6-dihydropyridine-3-carboxamide]	14.9
CN1C[C@@H]2[C@H](C1)[C@H]2Nc1cc(=O)n(C2(C(F)F)CC2)cc1C(=O)N[C@@H](c1cccc(C(F)F)c1F)C(F)F [Example 158, N-((S)-1-(3-(difluoromethyl)-2-fluorophenyl)-2,2-difluoroethyl)-1-(1-(difluoromethyl)cyclopropyl)-4-(((1R,5S,6s)-3-methyl-3-azabicyclo[3.1.0]hexan-6-yl)amino)-6-oxo-1,6-dihydropyridine-3-carboxamide]	82
